Marks after values point to notes of the source that are not given here.
details: pH 2.3

SMILES	Log P
C#CCNC(=C(C#N)C(=O)OCC)c1cccnc1Cl [Compound 1044]	2.18
CCOC(=O)C(C#N)=C(NC1CCCCC1C)c1cccnc1Cl (stereo not shown) [Compound 1066]	3.84
CCOC(=O)C(C#N)=C(NC1CC2CCC1C2)c1cccnc1Cl (stereo not shown) [Compound 1080]	3.59
CCOC(=O)C(C#N)=C(NC[Si](C)(C)C)c1cccnc1Cl [Compound 1085]	3.59

same assay, conditions: pH 2.7

SMILES	Log P
CCOC(=O)C(C#N)=C(NC(C)C(C)C)c1cn(C)nc1C(F)F (stereo not shown) [Compound 1003]	3.15^[a]
COCCNC(=O)C(C#N)=C(NC(C)C(C)C)c1cn(C)nc1C(F)F (stereo not shown) [Compound 1005]	2.59^[a]
CC(C)C(C)NC(=C(C#N)C(=O)NC1CC1)c1cn(C)nc1C(F)F (stereo not shown) [Compound 1006]	2.66^[a]
C=CCNC(=O)C(C#N)=C(NC(C)C(C)C)c1cn(C)nc1C(F)F (stereo not shown) [Compound 1007]	2.9^[a]
C=CCNC(=O)C(C#N)=C(NC(C)C(C)C)c1cn(C)nc1C(F)F (stereo not shown) [Compound 1008]	2.68^[a]
COC(=O)C(C#N)=C(NC1(C)CCCCC1)c1cccnc1Cl [Compound 1009]	3.13^[a]
COC(=O)C(C#N)=C(NC(C)(C)C#N)c1sc(C)nc1C(F)(F)F [Compound 1010]	3.04^[a]
CCOC(=O)C(C#N)=C(NC(C)(C)C#N)c1nc(Cl)ccc1Cl [Compound 1011]	2.98^[a]
C=CCCCC(C=C)NC(=C(C#N)C(=O)OC)c1sc(C)nc1C(F)(F)F (stereo not shown) [Compound 1019]	4.19^[a]
C=CCCCC(C=C)NC(=C(C#N)C(=O)OCC)c1conc1C (stereo not shown) [Compound 1020]	3.81^[a]
C=CCCCC(C=C)NC(=C(C#N)C(=O)OCC)c1cn(C)nc1C(F)(F)F (stereo not shown) [Compound 1021]	4.14^[a]
C=CCCCC(C=C)NC(=C(C#N)C(=O)OCC)c1sc(C)nc1C(F)(F)F (stereo not shown) [Compound 1022]	4.49^[a]
C=CCCCC(C=C)NC(=C(C#N)C(=O)OCC)c1sccc1Cl (stereo not shown) [Compound 1023]	4.65^[a]
C=CCCCC(C=C)NC(=C(C#N)C(=O)OCC)c1ccsc1I (stereo not shown) [Compound 1024]	4.65^[a]
CCC#CC(C)(C)NC(=C(C#N)C(=O)OC)c1cccnc1Cl [Compound 1025]	2.98^[a]
C#CC(C)(C)NC(=C(C#N)C(=O)OCC)c1sccc1Br [Compound 1027]	3.42^[a]
C#CC(C)(C)NC(=C(C#N)C(=O)OCC)c1ccsc1Br [Compound 1029]	3.42^[a]
C#CC(C)(C)NC(=C(C#N)C(=O)OCC)c1conc1C [Compound 1030]	2.66^[a]
C#CC(C)(C)NC(=C(C#N)C(=O)OCC)c1cn(C)nc1C(F)(F)F [Compound 1031]	3.02^[a]
C#CC(C)(C)NC(=C(C#N)C(=O)OCC)c1sccc1Cl [Compound 1032]	3.41^[a]
C#CC(C)(C)NC(=C(C#N)C(=O)OCC)c1cc(Cl)sc1Cl [Compound 1033]	3.99^[a]
C#CC(C)(C)NC(=C(C#N)C(=O)OCC)c1cn(C)nc1OC [Compound 1034]	2.44^[a]
C#CC(C)(C)NC(=C(C#N)C(=O)OCC)c1cn(C)nc1C=C [Compound 1035]	2.54^[a]
C#CC(C)(C)NC(=C(C#N)C(=O)OCC)c1sc(Cl)nc1Cl [Compound 1036]	3.61^[a]
C#CC(C)(C)NC(=C(C#N)C(=O)OCC)c1cn(C)cc1C(F)(F)F [Compound 1038]	3.21^[a]
CC#CC(C)(C)NC(=C(C#N)C(=O)OC)c1cccnc1Cl [Compound 1039]	2.57^[a]
CC#CC(C)(C)NC(=C(C#N)C(=O)OCC)c1sccc1C(F)(F)F [Compound 1040]	3.92^[a]

SMILES	Log P
CC#CC(C)(C)NC(=C(C#N)C(=O)OCC)c1sccc1Br [Compound 1041]	3.85^[a]
CC#CC(C)(C)NC(=C(C#N)C(=O)OC)c1sc(C)nc1C(F)(F)F [Compound 1042]	3.35^[a]
CC#CC(C)(C)NC(=C(C#N)C(=O)OCC)c1cn(C)nc1C(F)F [Compound 1043]	2.9^[a]
C#CC(C)NC(=C(C#N)C(=O)OC)c1cccnc1Cl (stereo not shown) [Compound 1045]	2.14^[a]
C#CC(C)NC(=C(C#N)C(=O)OCC)c1sccc1C(F)(F)F (stereo not shown) [Compound 1046]	3.25^[a]
C#CC(C)NC(=C(C#N)C(=O)OCC)c1sccc1Br (stereo not shown) [Compound 1047]	3.17^[a]
C#CC(C)NC(=C(C#N)C(=O)OC)c1sc(C)nc1C(F)(F)F (stereo not shown) [Compound 1048]	2.73^[a]
C#CC(C)NC(=C(C#N)C(=O)OCC)c1cn(C)nc1C(F)F (stereo not shown) [Compound 1049]	2.44^[a]
C#CC(C)NC(=C(C#N)C(=O)OCC)c1sc(C)nc1C(F)(F)F (stereo not shown) [Compound 1050]	3.06^[a]
CC#CC(C)NC(=C(C#N)C(=O)OC)c1cccnc1Cl (stereo not shown) [Compound 1051]	2.5^[a]
CC#CC(C)NC(=C(C#N)C(=O)OCC)c1cccnc1Cl (stereo not shown) [Compound 1052]	2.86^[a]
CCOC(=O)C(C#N)=C(NC1CC1C(F)(F)F)c1cccnc1Cl (stereo not shown) [Compound 1054]	2.9^[a]
CCOC(=O)C(C#N)=C(NC1CC1(C)C)c1cccnc1Cl (stereo not shown) [Compound 1055]	3.25^[a]
COC(=O)C(C#N)=C(NC1CC(C)CCC1C)c1cccnc1Cl (stereo not shown) [Compound 1057]	3.73^[a]
COC(=O)C(C#N)=C(NC1C(C)CCCC1C)c1cccnc1Cl (stereo not shown) [Compound 1058]	3.63^[a]
CCOC1CCCC1NC(=C(C#N)C(=O)OC)c1cccnc1Cl (stereo not shown) [Compound 1059]	2.93^[a]
CCC1CCCC(C)C1NC(=C(C#N)C(=O)OC)c1cccnc1Cl (stereo not shown) [Compound 1060]	3.99^[a]
CCC1CCCCC1NC(=C(C#N)C(=O)OC)c1cccnc1Cl (stereo not shown) [Compound 1061]	3.63^[a]
CCOC(=O)C(C#N)=C(NC1CC1CC)c1cccnc1Cl (stereo not shown) [Compound 1062]	3.27^[a]
C#CC1CCCCC1NC(=C(C#N)C(=O)OC)c1cccnc1Cl (stereo not shown) [Compound 1063]	2.99^[a]
CCOC(=O)C(C#N)=C(NC1CCC1C)c1cccnc1Cl (stereo not shown) [Compound 1065]	3.37^[a]
CCOC(=O)C(C#N)=C(NC1CC1C)c1cccnc1Cl (stereo not shown) [Compound 1067]	2.86^[a]
CCOC(=O)C(C#N)=C(NC1CC1c1ccccc1)c1cccnc1Cl (stereo not shown) [Compound 1068]	3.44^[a]
COC(=O)C(C#N)=C(NC1CCCC(C(F)(F)F)C1)c1cccnc1Cl (stereo not shown) [Compound 1069]	3.09^[a]
COC(=O)C(C#N)=C(NC1CCC(C)C(C)C1)c1cccnc1Cl (stereo not shown) [Compound 1070]	3.73^[a]
COC(=O)C(C#N)=C(NC1CC(C(F)(F)F)CC(C(F)(F)F)C1)c1cccnc1Cl (stereo not shown) [Compound 1071]	3.42^[a]
CCOC(=O)C(C#N)=C(NC1CC(C)C1)c1cccnc1Cl (stereo not shown) [Compound 1073]	3.3^[a]

SMILES	Log P
COC(=O)C(C#N)=C(NC1CCCC(C)C1)c1cccnc1Cl (stereo not shown) [Compound 1074]	3.37^[a]
COC(=O)C(C#N)=C(NC1CCC(C(F)(F)F)CC1)c1cccnc1Cl (stereo not shown) [Compound 1075]	3.04^[a]
COC(=O)C(C#N)=C(NC1CCC(C)CC1)c1cccnc1Cl (stereo not shown) [Compound 1076]	3.37^[a]
COC(=O)C(C#N)=C(NC1CCC(C(C)(C)C)CC1)c1cccnc1Cl (stereo not shown) [Compound 1077]	4.51^[a]
COC(=O)C(C#N)=C(NC1CCc2ccccc21)c1cccnc1Cl (stereo not shown) [Compound 1078]	3.06^[a]
CCOC(=O)C(C#N)=C(NC1CCc2ccccc21)c1cn(C)nc1C(F)F (stereo not shown) [Compound 1079]	3.42^[a]
CCOC(=O)C(C#N)=C(NC1CC2CCC1C2)c1cccnc1Cl (stereo not shown) [Compound 1081]	3.7^[a]
CCOC(=O)C(C#N)=C(NC1CC2CCC1C2)c1cccnc1Cl (stereo not shown) [Compound 1082]	3.74^[a]
CCOC(=O)C(C#N)=C(NC1C2CCCCC21)c1cccnc1Cl (stereo not shown) [Compound 1083]	3.73^[a]
COC(=O)C(C#N)=C(NC1CCCC2CCCCC21)c1cccnc1Cl (stereo not shown) [Compound 1084]	4.25^[a]
CCOC(=O)C(C#N)=C(NC(C(=O)NC)c1ccccc1)c1cccnc1Cl (stereo not shown) [Compound 1087]	2.43^[a]
C#CC1(NC(=C(C#N)C(=O)OC)c2cccnc2Cl)CCCCC1 [Compound 1088]	2.99^[a]
CCOC(=O)C(C#N)=C(NC(C)(C)C#Cc1ccc(C#N)cc1)c1sccc1Br [Compound 1089]	4.16^[a]
CCOC(=O)C(C#N)=C(NC(C)(C)C#Cc1ccc(C#N)cc1)c1cn(C)nc1C(F)F [Compound 1090]	3.37^[a]
CCOC(=O)C(C#N)=C(NC(C)(C)C#Cc1ccc(C#N)cc1)c1sccc1C(F)(F)F [Compound 1091]	4.24^[a]
COC(=O)C(C#N)=C(NC(C)(C)C#Cc1ccc(C#N)cc1)c1sc(C)nc1C(F)(F)F [Compound 1092]	3.78^[a]
CCOC(=O)C(C#N)=C(NC(C)(C)C#Cc1ccc(C#N)cc1)c1sc(C)nc1C(F)(F)F [Compound 1093]	4.04^[a]
CCOC(=O)C(C#N)=C(NC(C)(C)C#Cc1ccc(C#N)cc1)c1ccsc1Br [Compound 1094]	4.21^[a]
COC(=O)C(C#N)=C(NC(C)(C)C#Cc1ccc(C)cc1)c1sc(C)nc1C(F)(F)F [Compound 1095]	4.51^[a]
CCOC(=O)C(C#N)=C(NC(C)(C)C#Cc1ccc(C)cc1)c1sccc1Br [Compound 1096]	5.05^[a]
CCOC(=O)C(C#N)=C(NC(C)(C)C#Cc1ccc(C)cc1)c1cn(C)nc1C(F)F [Compound 1097]	4.11^[a]
CCOC(=O)C(C#N)=C(NC(C)(C)C#Cc1ccc(C)cc1)c1sc(C)nc1C(F)(F)F [Compound 1098]	4.92^[a]
CCOC(=O)C(C#N)=C(NC(C)(C)C#CCOC)c1sccc1C(F)(F)F [Compound 1099]	3.55^[a]
COCC#CC(C)(C)NC(=C(C#N)C(=O)OC)c1sc(C)nc1C(F)(F)F [Compound 1100]	3.06^[a]
CCOC(=O)C(C#N)=C(NC(C)(C)C#CCOC)c1cn(C)nc1C(F)F [Compound 1101]	2.73^[a]
CCOC(=O)C(C#N)=C(NC(C)(C)C#CCOC)c1sc(C)nc1C(F)(F)F [Compound 1102]	3.42^[a]

same assay, conditions: pH 7.5

SMILES	Log P
C#CCNC(=C(C#N)C(=O)OCC)c1cccnc1Cl [Compound 1044]	2.05
CCOC(=O)C(C#N)=C(NC1CCCCC1C)c1cccnc1Cl (stereo not shown) [Compound 1066]	3.7
CCOC(=O)C(C#N)=C(NC1CC2CCC1C2)c1cccnc1Cl (stereo not shown) [Compound 1080]	3.57
CCOC(=O)C(C#N)=C(NC[Si](C)(C)C)c1cccnc1Cl [Compound 1085]	3.46
